# Key:
# Assay type in all cases: in vivo, rat
# [1] = system: tactile allodynia in allodynic rats; assay: Tactile allodynia test (von Frey filaments, paw withdrawal threshold) in CCI (Bennett model) rats
# Text: Bennett Model: In this model, approximately 0.8 cm of the left sciatic nerve was exposed and freed with sharpened scissors at middle-thigh level as described by Bennett and Xie.^[76] Four ligatures were placed loosely around the sciatic nerve with 4-0 chromic catgut, with 1 mm space between the ties, which compresses the nerve but epineural blood circulation is preserved. The tissue and skin were closed in layers. […] Most allodynia was seen during the time period of 7-14 days after the surgery.
# Intrathecal catheter installation: A PE10 catheter, stretched to a somewhat thinner diameter in the distal part, was introduced into the spinal canal (subarachnoid space) via a 21 G (gauge) cannula between the L5 and L6 lamina and advanced to the lumbar enlargement in rats. The proximal part was tunneled under the skin and led out on the upper dorsal region. The location of the catheter was verified by the injection of 6 μl (50 mg/ml) xylocalne, such that a transient, flaccid paralysis of the legs was produced, and by X-ray after administration of 10 μl iodine contrast medium (Astra, Sweden). The catheter could be kept for up to two weeks in animals.^[79]
# The maximum volume injected at any one time was 10 μl.^[79]
# Tactile allodynia test: In a transparent glass chamber (20×20 cm) with a mesh net floor, each animal was subjected to the tactile allodynia test. A positive response is when an innocuous tactile stimulus induces a brief paw withdrawal away from the stimulation, similar to a paw withdrawal due to heat. A set of von Frey filaments from 0.01 to 28 g (Stoelting Co., Wood Dale, Ill.) were applied to the mid-paw of the allodynic rats at 1 gram, and then progressing up or down. The filament was pressed against the plantar surface for 1 to 2 seconds until it bent. Subsequent applications were made with a higher or lower von Frey filament depending on the animal response. The testing always began with normal paws. If a filament induced a brief paw withdrawal of a paw without bending in three out of five tests, the size of the filament was recorded as eliciting a positive withdrawal threshold.^[80] Allodynia was considered to be present when a withdrawal threshold was evoked by a filament corresponding to 8 grams or less.
# (§1) In rats with tactile allodynia (a withdrawal threshold with a filament below 8 g), an intrathecal catheter (PE 10) was installed and linked to an osmotic pump (Alzet) in a 37° C. water bath. Following a bolus injection of SCP-1 (30 nmol/kg, 10 μl), agrin siRNA (100 nM) was intrathecally administered continuously by the pump at a rate of 5 μl/1 hour for 4 hr. The animals were subjected to von Frey filament test every 15 min for 4 hr to determine whether the effects of SCP-1 on allodynia suppression are blocked by agrin siRNA. A control siRNA (nFsiRNA) was applied in the same way. The behavioral data was analyzed for agrin effects. Immediately after behavioral experiments, the animals were sacrificed and subjected to protein extraction of lumbar spinal cord, followed by Western-blot analysis as described above.
# A blind test was designed for intrathecal drug evaluations. Five days after CCI, rats were subjected to tactile allodynia tests with von Frey filaments. If a filament corresponding to 8 grams or less evoked a withdrawal response on the rat paw (at least 3 responses out of 5 stimuli), the value was designated as the allodynia threshold. […] Either a drug (100 nmol in 10 μl saline) or vehicle (only 10 μl saline) was pre-warmed and intrathecally injected into the allodynic rats. Then the rats were assayed for changes in allodynic and hyperalgesic behavior, agrin gene expression, and agrin protein changes. In addition, distribution and amount of agrin in the dorsal horn were visualized using immunostaining of L5 as reported above in Example 7.
# [2] = system: thermal hyperalgesia in allodynic rats; assay: Thermal hyperalgesia test (paw withdrawal latency) in CCI (Bennett) rats
# agrin protein = assay: Western blot of agrin protein in L3-5 spinal cord
# Procedure: Western blot for detecting protein expression of agrin: Agrin protein was analyzed from L3-5 spinal cord with Western blot as described below at times of 1 day, 3 days, and 7 days post-surgery. The changes in these proteins between sham-operated, nerve-injured (no drug), and nerve-injured (pre-emptive drug) groups were analyzed.
# Agrin Protein Extraction: The rats were deeply anesthetized with isoflurane and decapitated. Spinal cord L3-5 was quickly removed and immediately placed into tissue lysis buffer (1 ml, Sigma Co., St. Louis, Mo.) that contained protein enzyme inhibitors (1:100, Halt, Pierce). The tissue was homogenized for 2 min and incubated on ice for 45 min. The sample was then centrifuged at 10,000×g for 30 min at 4° C. The supernatant was transferred to a new tube and centrifuged again for further clarifying. The concentration of the protein was determined by an Agilent's Bio-Rad protein chip (Agilent's 2100 bioanalyzer, Santa Clara, Calif.) and by the […] (reagents from Bio-Rad).
# Western blot: Protein (20 μg) from each sample was mixed with 2× electrophoresis buffer and boiled for 5 min. The samples, along with a negative control, were loaded on 4-15% acrylamide tris-glycine SDS gels and electrophoresed in a cell (Bio-Rad) for approximately 1 hr. A Hybond-P polyvinylidene difluoride membrane (Bio-Rad, Hercules, Calif.) was used for transferring the protein in a mini-trans-blot transfer cell (Bio-Rad) for 2 hr. The membrane was then soaked in 2% milk for 1 hour and probed with monoclonal agrin antibody (Agr510 and Agr530, 1:5000, StressGen Biotechnologies Corp., Victoria, Canada) or β-actin antibody (1:5000) at 4° C. overnight with continual shaking. The following day goat anti-mouse secondary antibody conjugated to Alexa Fluor680 (1:5000, Molecular Probe) was added to the membrane and incubated for 1 hr at room temperature. The samples were washed three times with TBS buffer (Tris Buffered Saline, DAKO, Carpinteria, Calif.) between steps. The membrane was then scanned with an Odyssey (LI-COR) scanner and analyzed by Odyssey software (Li-Cor, Lincoln, Nebr.).
# as §1, with “Immediately after behavioral experiments, the animals were sacrificed and subjected to protein extraction of lumbar spinal cord, followed by Western-blot analysis as described above.” left out
compound,measurement,setting,value
O=C(CN1C(=O)c2ccccc2S1(=O)=O)Nc1ccc(O)cc1 [SCP-1],time to normalized withdrawal threshold,[1]; Example 9: SCP-1 alone,about one hour after injection
same,effect on withdrawal threshold,"[1]; Example 9: injected 7 days after CCI, SCP-1 alone, up to 4 h",normalized the withdrawal threshold
same,duration of effect on withdrawal threshold,[1]; intrathecal 100 nmol in 10 μl,up to 8 hr
same,time to normal withdrawal threshold,[1]; intrathecal 100 nmol in 10 μl,about an hour after injection
same,effect on paw-withdrawal threshold,"[1]; intrathecal 100 nmol in 10 μl in allodynic rats, day 7 after injury, up to 8 hr",raised the withdrawal threshold to normal values
same,effect on tactile allodynia,"[1]; intrathecal 100 nmol, day 7 after injury",suppressed the tactile allodynia
same,increase in paw-withdrawal latency (thermal hyperalgesia),"[2]; intrathecal 100 nmol in 10 μl, CCI (Bennett) rat model",80%
same,effect on paw-withdrawal latency at 120 min post injection,"[2]; intrathecal 100 nmol, 120 min",still apparent
same,agrin protein level,"agrin protein; allodynic rats, 2 h post-SCP-1 injection",up-regulated to a normal level
same,agrin protein,"agrin protein; pre-emptive intrathecal injection prior to CCI, 3 and 7 days",did not decrease

# From patent US20100004171A1, “Therapeutic Methods for Neuropathic Pain” (priority 2006, published 2010)
